Results published in PubChem BioAssay (NCI).
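Exposure lasted 48 hours, with cells grown in 96-well plates and compounds tested at five concentrations. Definition used: TGI = concentration required for complete inhibition of growth.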

Assays:
Test in all cases: inhibition of tumour cell growth, NCI panel, 48 h
MDA-N = system: MDA-N
SK-MEL-28 melanoma = system: SK-MEL-28 melanoma
SK-MEL-5 melanoma = system: SK-MEL-5 melanoma
DLD-1 colon = system: DLD-1 colon
DMS 114 small cell lung = system: DMS 114 small cell lung
DMS 273 small cell lung = system: DMS 273 small cell lung
HOP-18 NSCLC = system: HOP-18 NSCLC
KM20L2 colon = system: KM20L2 colon
LXFL 529 NSCLC = system: LXFL 529 NSCLC
M19-MEL melanoma = system: M19-MEL melanoma
SNB-78 CNS = system: SNB-78 CNS

Structure (SMILES) | TGI (MDA-N) [µM] | TGI (SK-MEL-28 melanoma) [µM] | TGI (SK-MEL-5 melanoma) [µM] | other results
Nc1ccc(Oc2ccc(C3(c4ccc(Oc5ccc(N)cc5)cc4)C4CC5CC(C4)CC3C5)cc2)cc1 | 40.4 | > 77.9 | > 100 | 
NC(=O)c1cccc(N=c2oc3ccc(Br)cc3cc2-c2nc3ccccc3[nH]2)c1 | 38.1 | > 100 | 11.3 | 
Cn1c(=O)c2c(nc3sc4c(n32)C(=O)c2c(O)ccc(O)c2C4=O)n(C)c1=O | 4.1 | 21.3 | 8.35 | 
C=C/C(C)=C\CC1[C@](C)(O)CC[C@H]2C(C)(C)C(O)CC[C@]12C (stereo partly specified) | > 100 | > 100 | > 100 | 
Cc1ccc(C(=O)Cn2c(C(=O)/C=C/c3cccs3)nc3ccccc32)cc1 | > 100 | > 100 | > 100 | 
O=C(O)c1cc2c(cc1CC(Cc1ccc3c(c1)CCCC3)C(=O)O)CCCC2 (stereo unspecified) | > 100 | > 100 | > 100 | 
C[Si](C)(N[Si](C)(C)OCCc1ccccc1)OCCc1ccccc1 | > 100 | > 100 | > 100 | 
O=C(CCCN1CCC2(CC1)CC(=O)N(N1CCOCC1)C2=O)c1ccc(F)cc1 | > 100 | > 100 | > 100 | 
O=C(Nc1cccc(C(F)(F)F)c1)C(=O)C1NC(=S)NC1=O (stereo unspecified) |  | > 100 | > 100 | TGI (DLD-1 colon): > 100 µM; TGI (DMS 114 small cell lung): > 100 µM; TGI (DMS 273 small cell lung): > 100 µM; TGI (HOP-18 NSCLC): > 100 µM; TGI (KM20L2 colon): > 100 µM; TGI (LXFL 529 NSCLC): > 100 µM; TGI (M19-MEL melanoma): > 100 µM; TGI (SNB-78 CNS): > 100 µM
COc1ccc(C2=C(N)c3c(Cl)cccc3C2=O)cc1 | > 100 | > 100 | > 100 | 
CN(C)CCNC(=O)c1cccc2c(NC(CS)C(=O)O)c3ccccc3[n+](C)c12 (stereo unspecified) |  | > 100 | > 100 | 
COC(=O)c1ccccc1NC(=NC1CCCCCC1)NS(=O)(=O)c1ccc(C)cc1 | > 100 | > 100 | > 100 | 
N#Cc1ccc(CSC2=C(c3ccc(Cl)cc3)S/C(=C3\SC(SCc4ccc(C#N)cc4)=C(c4ccc(Cl)cc4)S3)S2)cc1 | > 100 | > 100 | > 100 | 
O=C(OCc1ccc([N+](=O)[O-])cc1)N1c2ccccc2[C@@]23O[C@]24CCC[C@H]3C#C/C=C\C#C[C@H]14 | > 100 | > 100 | > 100 | 
CC1CC/C(=C\c2ccc(N(C)C)cc2)C2=C1C(c1ccc(N(C)C)cc1)NC(=S)N2 (stereo unspecified) | > 100 | > 100 | > 100 | 
Cc1cc(C)c(O)c(CN2CCN(C(C)C)CCN(C(C)C)CC2)c1 | 68.3 | 72.8 |  | 
COc1ccc2nc3c([N+](=O)[O-])ccc(NCCCN(C)C)c3c(NCCCN(C)C)c2c1 |  | 3.42 | 3.46 | 
CCOP12(OCC)NC(=O)OC1(C(F)(F)F)c1ccccc1O2 (stereo unspecified) |  | > 100 | > 100 | TGI (DLD-1 colon): > 100 µM; TGI (DMS 114 small cell lung): > 100 µM; TGI (DMS 273 small cell lung): > 100 µM; TGI (HOP-18 NSCLC): > 100 µM; TGI (LXFL 529 NSCLC): > 100 µM; TGI (M19-MEL melanoma): > 100 µM; TGI (SNB-78 CNS): > 100 µM
C=C1CCCC(C)(C)C1CCC1(C)CCC(C(C)C(=O)OC)OO1 (stereo unspecified) | 7.39 | > 25 | > 25 | 
Cc1ccc(-c2n[nH]c(=O)n2NC(=O)c2ccccc2C(=O)O)cc1 | > 100 | > 100 | > 100 | 

Structure (SMILES) | TGI (MDA-N) [µM] | TGI (SK-MEL-28 melanoma) [µM] | TGI (SK-MEL-5 melanoma) [µM] | other results
O[C@H]1[C@H](O)[C@@H](O)[C@@]2(O)CC[C@@H]1N2 | > 100 | > 100 | > 100 | 
CCOC(=O)C1(N)CCc2[nH][nH]c(=O)c2C1 (stereo unspecified) | > 100 | > 100 | > 100 | 
CCOC(=O)c1cc2c3c(c(C(C)=O)c(O)c2[nH]1)N(C(C)=O)CC3 | > 100 | > 100 | > 100 | 
CC(C)CC(=O)NC(C(=O)NC(C(=O)NC(CC(C)C)C(O)CC(=O)NC(C)C(=O)NC(CC(C)C)C(O)CC(=O)O)C(C)C)C(C)C (stereo unspecified) | > 100 | > 100 | > 100 | 
COc1cc2oc(-c3ccc4c(c3)OCO4)c(OC)c(=O)c2c(OC)c1O | > 100 | > 100 | > 100 | 
CN(C)CCCSc1nc2c(c(=N)n1-c1ccccc1)c(=S)n(-c1ccccc1)c(=S)n2-c1ccccc1 | 3.18 | 3.88 | 3.79 | 
CCOC(=O)CCSc1nc2ccc(I)cc2c(=O)n1Cc1ccccc1 | > 86.7 | > 100 | 32 | 
CN(C)CCCNC(=O)CCNC(=O)c1cc(NC(=O)c2cc(NC(=O)c3cc(NC(=O)c4nccn4C)cn3C)cn2C)cn1C | > 100 | > 100 | > 100 | 
COc1ccc(-c2cc(-c3ccc(O)cc3O)c(C#N)c(=O)[nH]2)cc1 | 32.7 | 33.5 | 34.6 | 
[N-]=[N+]=Nc1c(Cl)c(Cl)nc2ccccc12 | > 100 | > 100 | > 100 | 
CC1=NC2c3c(-c4ccc(Cl)cc4)cn(-c4ccc(C)cc4)c3N=CN2N1 (stereo unspecified) | > 100 | > 100 | > 100 | 
O=c1/c(=C/c2ccc([N+](=O)[O-])o2)sc2n1[C@@H](c1ccc(Cl)cc1)C=C(c1cc(F)c(Cl)cc1Cl)N=2 | 23.3 | > 100 | 28.8 | 
O=C1/C(=C/c2ccco2)N=C2Sc3c(nc[nH]c3=O)N12 | > 100 | > 100 | > 100 | 
COC(=O)C(C)(C)[C@@H]1OC(=O)N(S(=O)(=O)c2c(C)cc(C)cc2C)[C@H]1C(C)C | > 100 | > 100 | > 100 | 
COc1cc2c(cc1OCCCOS(C)(=O)=O)N=C[C@@H]1CCCN1C2=O |  | > 100 | > 100 | 
O=[N+]([O-])c1ccc(Oc2c(Cl)cc(S(=O)(=O)/N=C(\NO)Nc3ccc(Cl)cc3)cc2Cl)c(Cl)c1 | 28.9 | 47.6 | 31.3 | 
NC(=O)c1ncn(C2OC(CO)C(O)C2O)c1NC=O (stereo unspecified) | > 100 | > 100 | > 100 | 
N#Cc1ccc(N2CCOCC2)cc1 | > 100 | > 100 | > 100 | 
CC(=O)OCC1OC(n2c3c(cc(C#N)c2=S)CCC3)C(OC(C)=O)C(OC(C)=O)C1OC(C)=O (stereo unspecified) | > 100 | > 100 | > 100 | 
